Values after ≈ are worked out from the molar mass of the structure shown. Active and inactive are the calls of the source. The rule behind the calls is not given here.

One series deals with A549. Kind of series: Cytotoxicity against human A549 cells after 7 days by MTT assay. The series is classed as functional. The following applies: A549, 168 h, read-out: ED50 (the source's name). (Tetrazolium dyes change colour on reduction, which living cells bring about.)
The next series deals with MCF7. In words: Cytotoxicity against human MCF7 cells after 7 days by MTT assay. Type of series: functional. The note with it: MCF7, 168 h, read-out: ED50 (the source's name).
The test system of another series is HT-29. In words: Cytotoxicity against human HT29 cells after 7 days by MTT assay. Type of series: functional. The following applies: HT-29, 168 h, read-out: ED50 (the source's name).
Series [1] has as its system Amaranthus hypochondriacus. Kind of series: Phytogrowth-inhibitory activity against Amaranthus hypochondriacus assessed as inhibition of seedling growth petri dish bioassay. The series is classed as functional, organism-based.
The subject of a further series is Echinochloa crus-galli. In words: Phytogrowth-inhibitory activity against Echinochloa crus-galli assessed as inhibition of seedling germination by petri dish bioassay. The series is classed as functional, organism-based.
A further series has as its system Aspergillus niger. In words: Antimicrobial activity against Aspergillus niger ATCC 16888 by agar dilution method. The series is classed as functional, organism-based.
Series [2] is described as follows: Toxicity in brine shrimp. The series is classed as organism-based. The note with it: artemia, in vivo.
A further series deals with Candida albicans. In words: Antimicrobial activity against Candida albicans ATCC 10231 by agar dilution method. Type of series: functional, organism-based.
In series [3] the test system is Trichophyton mentagrophytes. Kind of series: Antimicrobial activity against Trichophyton mentagrophytes ATCC 9129 by agar dilution method. The series is classed as functional.

A word on the IC50: it is the concentration needed to halve the response being measured. The LC50 is the concentration lethal to half of the exposed cells or organisms. The low end stands for a more lethal substance, the high end for a less lethal substance. `COc1cc2c(cc1C(C)=O)C=CC(C)(C)O2` [ENCECALIN]: the EC50 in the series with A549 worked out at 25 µg/mL (≈ 108 µM); in the series on MCF7, 29 µg/mL (≈ 125 µM); in the series on HT-29, 18 µg/mL (≈ 77.5 µM). Also, the half-maximal inhibitory concentration (IC50) amounted to 7 µg/mL (≈ 30.1 µM) in series [1] and 6 µg/mL (≈ 25.8 µM) in the series on Echinochloa crus-galli. Moreover, the result with Aspergillus niger and in the series on Candida albicans was inactive. In series [2], this molecule had a 50% lethal concentration (LC50) of 31 µg/mL (≈ 133 µM).

What is called MIC is the lowest concentration found to suppress growth. Take `COC1=CC(=O)C[C@@H](C)[C@]12Oc1c(Cl)c(OC)cc(OC)c1C2=O` [GRISEOFULVIN]: the minimal inhibitory concentration (MIC) in series [3] came to 2.6 µg/mL (≈ 7.37 µM).

Turning to `COC(C)(C)/C=C/c1cc(C(C)=O)ccc1O[C@@H]1O[C@H](CO)[C@@H](O)[C@H](O)[C@H]1O`, the EC50 with A549 came out at 6 µg/mL (≈ 15.1 µM); in the series with MCF7, 44 µg/mL (≈ 111 µM); in the series on HT-29, 61 µg/mL (≈ 154 µM). The IC50 in [1] is 148 µg/mL (≈ 373 µM); with Echinochloa crus-galli, 231 µg/mL (≈ 583 µM). In addition, the result in the series on Aspergillus niger and in the series on Candida albicans was inactive. Moreover, in series [2], the LC50 was greater than 1000 µg/mL.

As for `C=C(C)[C@@H]1Oc2cc(O)c(C(C)=O)cc2[C@H]1OC`, the EC50 in the series on A549 is 31 µg/mL (≈ 125 µM); with MCF7, 34 µg/mL (≈ 137 µM); in the series on HT-29, 16 µg/mL (≈ 64.4 µM). The concentration for half-maximal inhibition (IC50) in [1] was 61 µg/mL (≈ 246 µM); in the series with Echinochloa crus-galli, 323 µg/mL (≈ 1300 µM). For the same molecule, the outcome in the series on Aspergillus niger and in the series with Candida albicans was inactive. The LC50 in series [2] worked out at 68 µg/mL (≈ 274 µM).

In the case of `COc1cccc2c1C(=O)c1c(O)c3c(c(O)c1C2=O)C[C@@](O)(C(=O)CO)C[C@@H]3O[C@H]1C[C@H](N)[C@H](O)[C@H](C)O1` [DOXORUBICIN], the EC50 in the series on A549 amounted to 0.002 µg/mL (≈ 0.00368 µM); in the series on MCF7, 0.02 µg/mL (≈ 0.0368 µM); in the series with HT-29, 0.04 µg/mL (≈ 0.0736 µM).

Turning to `CC(=O)c1cc2c(cc1O)OC(C)(C)C=C2` [DEMETHYLENCECALIN], the EC50 with A549 is 10 µg/mL (≈ 45.8 µM); in the series on MCF7, 2 µg/mL (≈ 9.16 µM); with HT-29 it was 2 µg/mL (≈ 9.16 µM). The values for the IC50 (in [1]; in the series with Echinochloa crus-galli) were 27 µg/mL (≈ 124 µM) and 79 µg/mL (≈ 362 µM), respectively. The outcome with Aspergillus niger and in the series on Candida albicans was inactive. Also, the LC50 in [2] was 31 µg/mL (≈ 142 µM). Moreover, the MIC in series [3] worked out at 58 µg/mL (≈ 266 µM).

Turning to `C=C(C)[C@H]1Cc2cc(C(C)=O)c(OC)cc2O1`, the values for the EC50 in the series with A549, in the series on MCF7 and with HT-29 were 1 µg/mL (≈ 4.31 µM), 33 µg/mL (≈ 142 µM) and 16 µg/mL (≈ 68.9 µM), respectively. The half-maximal inhibitory concentration (IC50) in [1] is 11 µg/mL (≈ 47.4 µM); with Echinochloa crus-galli it was 68 µg/mL (≈ 293 µM). The result in the series on Aspergillus niger and in the series on Candida albicans was inactive. This molecule also showed an LC50 in [2] of 8 µg/mL (≈ 34.4 µM).

Take `C=C(C)c1cc2cc(C(C)=O)c(O)cc2o1` [EUPARIN]: the EC50 was found to be 22 µg/mL (≈ 102 µM) with A549, 6 µg/mL (≈ 27.7 µM) with MCF7 and 6 µg/mL (≈ 27.7 µM) in the series with HT-29. The IC50 came to 111 µg/mL (≈ 513 µM) in series [1] and 252 µg/mL (≈ 1170 µM) in the series on Echinochloa crus-galli. Further, the outcome in the series with Aspergillus niger and in the series with Candida albicans was inactive. Besides, the median lethal concentration (LC50) in series [2] worked out at 44 µg/mL (≈ 203 µM). In series [3], this molecule had an MIC of 29 µg/mL (≈ 134 µM).

For the molecule `CCCCC[C@H]1CCCCCCCCCC(=O)O[C@H]2[C@H](O)[C@@H](CO)O[C@@H](O[C@H]3[C@H](O1)O[C@H](C)[C@H](O)[C@@H]3O)[C@@H]2O[C@@H]1O[C@@H](C)[C@H](OC(=O)[C@@H](C)CC)[C@@H](O[C@@H]2O[C@@H](C)[C@H](O)[C@@H](O)[C@H]2O)[C@H]1OC(=O)[C@@H](C)CC` [TRICOLORIN A], the results for the IC50 (in series [1]; with Echinochloa crus-galli) were 11 µg/mL (≈ 10.8 µM) and 68 µg/mL (≈ 66.5 µM), respectively.
